From patent US20250375473A1, “Pharmaceutical composition for treating cancer comprising an ionic compound having metal ion binding thereto” (METAFINES.CO.LTD., priority 2018, published 2025)
In brackets after ≈: the same amount, converted by molar mass. Where two headings read alike, the source gives them in different places.

Columns and labels:
[1] = tested on: human colorectal cancer cell lines (HCT-116 and HT-29); experiment: Change in ascorbic acid level in cancer cells; assay type: cell-based; conditions: 1 mM; 24 h; lysate; vs untreated control
Description: After culture, the cultured cancer cells were pulverized with a homogenizer and centrifuged, and the concentration of ascorbic acid contained in the lysate was measured using an ascorbic acid assay kit (Biovision, San Francisco, CA).

[2] = tested on: SW480; experiment: Hetero salts vs homo salts, cell viability and cytotoxicity, SW480; assay type: cell-based; conditions: for viability at 5000 µM: SW480, read-out: cell viability, SW480 (5 mM)
Description: (§1) Hetero salts prepared according to the examples (ASCA101, ASCA201) and homo salts were applied to colorectal cancer cell lines, and their effects on cell viability and cytotoxicity were evaluated.
(§2) Herein, “Na-ASC” refers to sodium ascorbate, “Na-DCA” refers to sodium dichloroacetate, “Ca (ASC) 2” refers to calcium ascorbate, “Ca (DCA) 2” refers to calcium dichloroacetate, and “Ca (LA) 2” refers to calcium lactate.

[3] = tested on: DLD-1; experiment: Hetero salts vs homo salts, cell viability and cytotoxicity, DLD-1; assay type: cell-based; conditions: for viability at 10000 µM: DLD-1, read-out: cell viability, DLD-1 (10 mM)
Description: as §1, §2

[4] = tested on: breast cancer cell line (MDA-MB-231); experiment: MTT assay, 72 h, breast cancer cell line; assay type: cell-based; conditions: for IC50: Homo sapiens, MDA-MB-231, 72 h; for IC50 of Breast cancer cell line: MDA-MB-231, 72 h, MTT
Description: (§3) The calcium salts of Examples 1 to 3 were added to each well by concentration (20 mg/ ? , mg/ ? , 0.8 mg/ ? , 0.16 mg/ ? , 0.032 mg/ ? , 0.0064 mg/ ? , 0.00128 mg/ ? , 0.000256 mg/ ? ). […] The supernatant was removed using a centrifuge, DMSO 200 ? was added to each well to dissolve the MTT stained precipitate, and OD540 value was measured at 540 nm with an ELISA reader.

[5] = tested on: PDH enzyme; experiment: Time-dependent PDH enzyme activity in cancer cells; assay type: cell-based; conditions: DLD-1 and HT-29 cancer cells; FIG. 29
[6] = tested on: ovarian cancer cell line (A2780); experiment: MTT assay, 48 h, A2780
Description: (§5) 7 cell lines were aliquoted to each well of a 96-well plate at 5×10^3 cells, and cultured for 24 hours. […] The drug-treated cells were cultured in an incubator (37° C., 5% CO2) for 48 hours, and 5 mg/ ? MTT reagent 10 ? was added to each well and cultured for additional 4 hours. Then, culture medium was removed and DMSO 100 ? was treated to dissolve the MTT stained precipitate, and absorbance was measured at 540 nm with a microplate reader.

[7] = tested on: colorectal cancer cell line (HCT-116); experiment: MTT assay, 48 h, HCT-116; conditions: for IC50: Homo sapiens, HCT-116, 48 h
Description: as §5

[8] = tested on: colorectal cancer cell line (DLD-1); experiment: MTT assay, 72 h, colorectal cancer cell line; assay type: cell-based; conditions: for IC50: Homo sapiens
Description: as §3

[9] = tested on: brain cancer cell line (U87MG); experiment: MTT assay, 72 h, brain cancer cell line; assay type: cell-based; conditions: for IC50: Homo sapiens, U-87 MG
Description: as §3

[10] = tested on: liver cancer cell line (HepG2); experiment: MTT assay, 48 h, HepG2
Description: as §5

[11] = tested on: lung cancer cell line (A-549); experiment: MTT assay, 48 h, A549
Description: as §5

[12] = tested on: colorectal cancer cell line (HT-29); experiment: MTT assay, 48 h, HT-29
Description: as §5

[13] = tested on: pancreatic cancer cell line (PANC-1); experiment: MTT assay, 48 h, PANC-1
Description: as §5

[14] = tested on: stomach cancer cell line (SNU-638); experiment: MTT assay, 48 h, SNU-638
Description: as §5

[15] = tested on: HCT-116 cell; experiment: IC50 of each drug alone, 48 h, HCT-116; assay type: cell-based, human
Description: (§4) Then, various concentration of Example or chemical anticancer drugs (Fluorouracil (5-FU), SN-38, Paclitaxel (PTX)) were treated thereto alone.

[16] = tested on: poly (ADP-ribose) polymerase 1 (PARP-1); experiment: Western blot, PARP-1 expression in HCT-116; assay type: cell-based, human; conditions: 24 h
Description: The cultured cancer cells were pulverized with a homogenizer and centrifuged, and the expression levels of poly (ADP-ribose) polymerase 1 (PARP-1), β-catenin, VEGF and β-actin proteins contained in the lysate were measured using Western blot.

[17] = tested on: HT-29 cell; experiment: IC50 of each drug alone, 48 h, HT-29; assay type: cell-based, human
Description: as §4

[18] = tested on: DLD-1 cell; experiment: IC50 of each drug alone, 48 h, DLD-1; assay type: cell-based
Description: as §4

[19] = Homo sapiens, A2780, 48 h, read-out: IC50 mM of A2780 Ovarian cancer
[20] = Homo sapiens, A2780, 48 h, read-out: IC50 of A2780 Ovarian cancer (mg/ml)
[21] = read-out: IC50 mM of HCT-116 Colorectal cancer cell line
[22] = read-out: IC50 of HCT-116 Colorectal cancer cell line (mg/ml)
[23] = Homo sapiens, HepG2, 48 h, read-out: IC50 mM of HepG2 Liver cancer
[24] = Homo sapiens, HepG2, 48 h, read-out: IC50 of HepG2 Liver cancer (mg/ml)
[25] = Homo sapiens, A549, 48 h, read-out: IC50 mM of A549 Lung cancer
[26] = Homo sapiens, A549, 48 h, read-out: IC50 of A549 Lung cancer (mg/ml)
[27] = Homo sapiens, HT-29, 48 h, read-out: IC50 mM of HT-29 Colorectal cancer cell line
[28] = Homo sapiens, HT-29, 48 h, read-out: IC50 of HT-29 Colorectal cancer cell line (mg/ml)
[29] = Homo sapiens, PANC-1, 48 h, read-out: IC50 mM of PANC-1 Pancreatic cancer
[30] = Homo sapiens, PANC-1, 48 h, read-out: IC50 of PANC-1 Pancreatic cancer (mg/ml)
[31] = Homo sapiens, SNU-638, 48 h, read-out: IC50 mM of SNU-638 Stomach cancer
[32] = Homo sapiens, SNU-638, 48 h, read-out: IC50 of SNU-638 Stomach cancer (mg/ml)
[33] = Homo sapiens, SW480, read-out: cytotoxicity, SW-480
[34] = Homo sapiens, DLD-1, read-out: cytotoxicity, DLD-1
[35] = read-out: IC50 value, HCT-116 cell
[36] = Homo sapiens, HCT-116, read-out: IC50 value, HCT-116 cell

Compound: calcium ascorbate [Ca(ASC)2]
- ascorbic acid concentration in cancer cells [1]: lower level of increased ascorbic acid concentration
- cell viability, SW480 (5 mM) [2]: 33.19
- cell viability, DLD-1 (10 mM) [3]: 27.51

Compound: O=C(O)C(Cl)Cl [Dichloroacetic acid, dichloroacetic acid, reference compound]
- IC50 ([4]; read-out: IC50 of Breast cancer cell line (mg/ml)): 0.43 mg/mL (≈ 3.33 mM)
- time-dependent PDH activity [5]: peaked at 6 hours post-treatment and subsequently declined
- IC50 [6, 19]: > 5 mM
- IC50 [6, 20]: > 1.7 mg/mL
- IC50 [7, 21]: > 5 mM
- IC50 [7, 22]: > 1.7 mg/mL
- IC50 ([8]; DLD-1, 72 h, read-out: IC50 of Colorectal cancer cell line (mg/ml)): 1.21 mg/mL (≈ 9.38 mM)
- IC50 ([9]; read-out: IC50 of Brain cancer cell line (mg/ml)): 3.71 mg/mL (≈ 28.8 mM)
- IC50 [10, 23]: > 5 mM
- IC50 [10, 24]: > 1.7 mg/mL
- IC50 [11, 25]: > 5 mM
- IC50 [11, 26]: > 1.7 mg/mL
- IC50 [12, 27]: > 5 mM
- IC50 [12, 28]: > 1.7 mg/mL
- IC50 [13, 29]: > 5 mM
- IC50 [13, 30]: > 1.7 mg/mL
- IC50 [14, 31]: > 5 mM
- IC50 [14, 32]: > 1.7 mg/mL

Compound: O=C([O-])C(Cl)Cl.[Na+] [Na-DCA, sodium dichloroacetate]
- viability at 5000 µM ([2]; Homo sapiens): 99.8%
- IC50 [2, 33]: > 5000 µM
- viability at 10000 µM ([3]; Homo sapiens): 75.4%
- IC50 [3, 34]: > 10000 µM

Compound: O=C1O[C@H]([C@@H](O)CO)C(O)=C1O [ascorbic acid, reference compound]
- IC50 ([4]; read-out: IC50 of Breast cancer cell line): 0.06 mg/mL (≈ 0.341 mM)
- ascorbic acid concentration in cancer cells [1]: lower level of increased ascorbic acid concentration
- IC50 [6, 19]: 0.15 mM
- IC50 [6, 20]: 0.05 mg/mL
- IC50 [7, 21]: 0.27 mM
- IC50 [7, 22]: 0.09 mg/mL
- IC50 ([8]; DLD-1, 72 h, MTT, read-out: IC50 of Colorectal cancer cell line): 0.09 mg/mL (≈ 0.511 mM)
- IC50 ([9]; U87MG, MTT, read-out: IC50 of Brain cancer cell line): 0.9 mg/mL (≈ 5.11 mM)
- IC50 [10, 23]: 4.2 mM
- IC50 [10, 24]: 1.44 mg/mL
- IC50 [11, 25]: > 5 mM
- IC50 [11, 26]: > 1.7 mg/mL
- IC50 [12, 27]: 0.93 mM
- IC50 [12, 28]: 0.32 mg/mL
- IC50 [13, 29]: 0.37 mM
- IC50 [13, 30]: 0.13 mg/mL
- IC50 [14, 31]: 2.48 mM
- IC50 [14, 32]: 0.85 mg/mL

Compound: CCc1c2c(nc3ccc(O)cc13)-c1cc3c(c(=O)n1C2)COC(=O)[C@]3(O)CC [SN-38]
- IC50 [15, 35]: 0.25 µM

Compound: CC(O)C(=O)[O-].O=C([O-])C(Cl)Cl.[Ca+2] (stereo not shown) [Example 3, calcium salts of dichloroacetic acid and lactate]
- IC50 of Breast cancer cell line [4]: 50 µg/mL
- concentration at which expression level of full length PARP-1 was decreased the most [16]: 0.3 mg/mL
- IC50 of Colorectal cancer cell line ([8]; DLD-1, 72 h, MTT): 860 µg/mL
- IC50 of Brain cancer cell line ([9]; U87MG, MTT): 800 µg/mL

Compound: calcium dichloroacetate [Ca(DCA)2]
- cell viability, SW480 (5 mM) [2]: 105.98
- cell viability, DLD-1 (10 mM) [3]: 62.53

Compound: O=c1[nH]cc(F)c(=O)[nH]1 [Fluorouracil (5-FU), Fluorouracil]
- IC50 [15, 36]: 6 µM

Compound: O=C1O[C@H]([C@@H](O)CO)C([O-])=C1O.[Na+] [Na-ASC, sodium ascorbate]
- viability at 5000 µM ([2]; Homo sapiens): 40.8%
- IC50 [2, 33]: 3000 µM
- viability at 10000 µM ([3]; Homo sapiens): 65.3%
- IC50 [3, 34]: 9600 µM

Compound: CC(O)C(=O)[O-].O=C1O[C@H]([C@@H](O)CO)C([O-])=C1O.[Ca+2] [Example 2, calcium salts of ascorbic acid and lactate]
- IC50 of Breast cancer cell line [4]: 50 µg/mL
- ascorbic acid concentration in cancer cells [1]: increased
- IC50 of A2780 Ovarian cancer (mg/ml) ([6]; 48 h, MTT, value in brackets): (0.05) mg/ml
- IC50 ([6]; read-out: IC50 mM of A2780 Ovarian cancer, 48 h, MTT): 0.14 mM
- IC50 [2]: 2600 µM
- concentration at which expression level of full length PARP-1 was decreased the most [16]: 0.34 mg/mL
- IC50 of HCT-116 Colorectal cancer cell line (mg/ml) ([7]; 48 h, MTT, value in brackets): (0.11) mg/ml
- IC50 [17]: 1800 µM
- IC50 of Colorectal cancer cell line ([8]; DLD-1, 72 h, MTT): 70 µg/mL
- IC50 [3]: 8600 µM
- IC50 of Brain cancer cell line ([9]; U87MG, MTT): 600 µg/mL
- IC50 of HepG2 Liver cancer (mg/ml) ([10]; 48 h, MTT, value in brackets): (0.79) mg/ml
- IC50 ([10]; read-out: IC50 mM of HepG2 Liver cancer, 48 h, MTT): 2.3 mM
- IC50 of A549 Lung cancer (mg/ml) ([11]; 48 h, MTT, value in brackets): (1.06) mg/ml
- IC50 ([11]; read-out: IC50 mM of A549 Lung cancer, 48 h, MTT): 3.1 mM
- IC50 [15, 35]: 430 µM
- IC50 of HT-29 Colorectal cancer cell line (mg/ml) ([12]; 48 h, MTT, value in brackets): (0.23) mg/ml
- IC50 ([12]; read-out: IC50 mM of HT-29 Colorectal cancer cell line, 48 h, MTT): 0.66 mM
- IC50 of PANC-1 Pancreatic cancer (mg/ml) ([13]; 48 h, MTT, value in brackets): (0.14) mg/ml
- IC50 ([13]; read-out: IC50 mM of PANC-1 Pancreatic cancer, 48 h, MTT): 0.4 mM
- IC50 [18]: 340 µM
- IC50 of SNU-638 Stomach cancer (mg/ml) ([14]; 48 h, MTT, value in brackets): (0.49) mg/ml
- IC50 ([14]; read-out: IC50 mM of SNU-638 Stomach cancer, 48 h, MTT): 1.44 mM

Compound: CC(=O)O[C@H]1C(=O)[C@@]2(C)[C@H]([C@H](OC(=O)c3ccccc3)[C@]3(O)C[C@H](OC(=O)[C@H](O)[C@@H](NC(=O)c4ccccc4)c4ccccc4)C(C)=C1C3(C)C)[C@]1(OC(C)=O)CO[C@@H]1C[C@@H]2O [Paclitaxel (PTX), Paclitaxel]
- IC50 [15, 36]: 0.0078 µM
